Results: patent publication US20250171431A1, “HETEROCYCLIC INHIBITORS OF IGF-1R FOR TREATMENT OF DISEASE” (HORIZON THERAPEUTICS IRELAND DAC, priority 2023, published 2025)

The molecules below were run against IGF-1R (Homo sapiens (Human), UniProt P08069) (assay: Example B-1: IGF-1R Assay (PC3 cells, IGF1 stimulation, AlphaLISA)). Conditions: 200 ng/mL IGF1 stimulation, read-out: Biological Activity against IGF-1R IC50.
Assay type: cell-based
Outline: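 Readout is AlphaLISA signal from lysed PC3 cells, expressed as % inhibition versus vehicle and EC80 controls and banded by IC50. Before lysis, the cells were starved of serum for 2 h, exposed to 3× serially diluted compound for 2 h, and stimulated for 30 min with 200 ng/mL IGF1 (final).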

Chain of IGF-1R (P08069 31-1367): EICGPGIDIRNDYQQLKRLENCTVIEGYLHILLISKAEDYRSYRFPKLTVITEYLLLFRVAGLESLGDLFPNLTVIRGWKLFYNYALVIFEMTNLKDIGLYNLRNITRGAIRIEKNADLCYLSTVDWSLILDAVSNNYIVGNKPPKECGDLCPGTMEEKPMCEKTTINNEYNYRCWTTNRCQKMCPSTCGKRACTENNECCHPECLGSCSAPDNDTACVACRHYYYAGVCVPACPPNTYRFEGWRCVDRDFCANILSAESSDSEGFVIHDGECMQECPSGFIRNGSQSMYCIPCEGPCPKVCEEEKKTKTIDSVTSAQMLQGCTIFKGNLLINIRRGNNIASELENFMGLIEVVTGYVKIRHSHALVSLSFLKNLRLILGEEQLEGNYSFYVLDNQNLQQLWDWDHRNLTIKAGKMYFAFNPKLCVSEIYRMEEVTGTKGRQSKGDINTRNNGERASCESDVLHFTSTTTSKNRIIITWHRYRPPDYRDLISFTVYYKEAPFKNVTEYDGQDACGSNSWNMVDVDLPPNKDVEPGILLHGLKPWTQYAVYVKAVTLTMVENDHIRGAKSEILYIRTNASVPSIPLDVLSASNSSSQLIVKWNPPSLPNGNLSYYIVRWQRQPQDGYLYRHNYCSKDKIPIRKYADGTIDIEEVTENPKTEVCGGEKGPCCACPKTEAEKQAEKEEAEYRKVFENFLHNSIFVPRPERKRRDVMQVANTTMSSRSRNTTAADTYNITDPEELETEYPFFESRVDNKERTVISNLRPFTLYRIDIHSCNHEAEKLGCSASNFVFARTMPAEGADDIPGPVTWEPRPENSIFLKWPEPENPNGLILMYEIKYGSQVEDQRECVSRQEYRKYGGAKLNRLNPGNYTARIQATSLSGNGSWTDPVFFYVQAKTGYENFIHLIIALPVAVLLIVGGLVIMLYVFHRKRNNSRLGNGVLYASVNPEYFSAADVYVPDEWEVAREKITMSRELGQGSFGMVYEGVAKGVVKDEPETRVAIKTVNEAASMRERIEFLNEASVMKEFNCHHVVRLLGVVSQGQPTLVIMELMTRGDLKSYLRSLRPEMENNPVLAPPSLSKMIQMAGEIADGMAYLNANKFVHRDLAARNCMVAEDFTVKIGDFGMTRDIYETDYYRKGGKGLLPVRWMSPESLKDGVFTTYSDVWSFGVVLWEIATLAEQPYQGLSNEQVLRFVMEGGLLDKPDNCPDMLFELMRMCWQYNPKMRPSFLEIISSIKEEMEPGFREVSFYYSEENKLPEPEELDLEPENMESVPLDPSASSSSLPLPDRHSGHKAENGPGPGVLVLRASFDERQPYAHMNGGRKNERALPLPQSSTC

Row | SMILES | IC50 [nM]
1 | COc1cc(Nc2nccc(Nc3cc4ccccc4nc3C(N)=O)n2)cnc1O[C@H]1C[C@@H](N(C)C)C1 [Compound 172, 3-((2-((6-((1s,3s)-3-(dimethylamino)cyclobutoxy)-5-methoxypyridin-3-yl)amino)pyrimidin-4-yl)amino)quinoline-2-carboxamide] | ≤ 500
2 | COc1cc(Nc2ncc(F)c(Nc3cnc4cc(F)c(F)cc4c3)n2)ccc1O[C@H]1C[C@@H](N(C)C)C1 [Compound 173, N4-(6,7-difluoroquinolin-3-yl)-N2-(4-((1s,3s)-3-(dimethylamino)cyclobutoxy)-3-methoxyphenyl)-5-fluoropyrimidine-2,4-diamine] | ≤ 500
3 | COc1cc(Nc2nccc(Nc3cc4cccc(F)c4[nH]c3=O)n2)cnc1N1CCN(C)C(C(F)(F)F)C1 (stereo not shown) [Compound 174, 8-fluoro-3-((2-((5-methoxy-6-(4-methyl-3-(trifluoromethyl)piperazin-1-yl)pyridin-3-yl)amino)pyrimidin-4-yl)amino)quinolin-2(1H)-one] | 500 to 2000
4 | COc1cc(Nc2nccc(Nc3cc4cccc(F)c4[nH]c3=O)n2)ccc1N1CCN(C)C(C)(C)C1 [Compound 175, 8-fluoro-3-((2-((3-methoxy-4-(3,3,4-trimethylpiperazin-1-yl)phenyl)amino)pyrimidin-4-yl)amino)quinolin-2(1H)-one] | ≤ 500
5 | COc1cc(Nc2nccc(Nc3cnc4cc(F)c(F)cc4c3)n2)cnc1N1CCNC(C(F)(F)F)C1 (stereo not shown) [Compound 176, N4-(6,7-difluoroquinolin-3-yl)-N2-(5-methoxy-6-(3-(trifluoromethyl)piperazin-1-yl)pyridin-3-yl)pyrimidine-2,4-diamine] | ≤ 500
6 | COc1cc(Nc2nccc(Nc3cnc4c(c3)OCC(CN(C)C)O4)n2)ccc1O[C@H]1C[C@@H](N(C)C)C1 (stereo partly shown) [Compound 179, 4-{3-[(dimethylamino)methyl]-2,3-dihydro-1,4-dioxa-5-aza-7-naphthylamino}-2-{3-methoxy-4-[(1s,3s)-3-(dimethylamino)cyclobutoxy]phenylamino}pyrimidine] | ≤ 500
7 | COc1cc(Nc2nccc(Nc3cnc(O[C@H]4CCCC[C@H]4O)c(F)c3)n2)ccc1O[C@H]1C[C@@H](N(C)C)C1 [Compound 180, (1R,2S)-2-[3-fluoro-5-(2-{3-methoxy-4-[(1s,3R)-3-(dimethylamino)cyclobutoxy]phenylamino}-4-pyrimidinylamino)-2-pyridyloxy]cyclohexanol] | ≤ 500
8 | COc1cc(Nc2nccc(Nc3cnc4c(c3)O[C@@H]3CCCC[C@@H]3O4)n2)ccc1O[C@H]1C[C@@H](N(C)C)C1 [Compound 190, 4-[(8aS,10aR)-5,6,7,8,8a, 10a-hexahydro-9,10-dioxa-1-aza-3-anthrylamino]-2-{3-methoxy-4-[(1s,3S)-3-(dimethylamino)cyclobutoxy]phenylamino}pyrimidine] | ≤ 500
9 | COc1cc(Nc2nccc(Nc3cnc4c(c3)O[C@H]3CCCC[C@@H]3O4)n2)ccc1O[C@H]1C[C@@H](N(C)C)C1 [Compound 191, 4-[(8aS,10aS)-5,6,7,8,8a,10a-hexahydro-9,10-dioxa-1-aza-3-anthrylamino]-2-{3-methoxy-4-[(1s,3R)-3-(dimethylamino)cyclobutoxy]phenylamino}pyrimidine] | ≤ 500
10 | COc1cc(Nc2nccc(Nc3cnc4c(c3)O[C@H]3CCC[C@@H]3O4)n2)ccc1O[C@H]1C[C@@H](N(C)C)C1 [Compound 192, 4-{(3S,7S)-2,8-dioxa-10-azatricyclo[7.4.0.03,7]trideca-1(13),9,11-trien-12-ylamino}-2-{3-methoxy-4-[(1s,3R)-3-(dimethylamino)cyclobutoxy]phenylamino}pyrimidine] | ≤ 500
11 | COc1cc(Nc2ncc(F)c(Nc3cc4ccccc4nc3C(N)=O)n2)ccc1O[C@H]1C[C@@H](N(C)C)C1 [Compound 193, 3-(5-fluoro-2-{3-methoxy-4-[(1s,3s)-3-(dimethylamino)cyclobutoxy]phenylamino}-4-pyrimidinylamino)-2-quinolinecarboxamide] | ≤ 500
12 | COc1cc(Nc2nccc(Nc3cnc4c(c3)CCC4)n2)ccc1OCCCN1CCCCC1 [Compound 194, 4-(4-aza-6-indanylamino)-2-[3-methoxy-4-(3-piperidinopropoxy)phenylamino] pyrimidine] | ≤ 500
13 | COc1cc(Nc2nccc(Nc3cc4cccc(F)c4[nH]c3=O)n2)cnc1N1CCN(C)CC1 [Compound 197, 8-fluoro-3-{2-[5-methoxy-6-(4-methyl-1-piperazinyl)-3-pyridylamino]-4-pyrimidinylamino}-1,2-dihydro-2-quinolinone] | ≤ 500
14 | COc1cc(Nc2nccc(Nc3cc(Cl)cnc3C(N)=O)n2)ccc1O[C@H]1C[C@@H](N(C)C)C1 [Compound 198, 5-chloro-3-(2-{3-methoxy-4-[(1s,3s)-3-(dimethylamino)cyclobutoxy]phenylamino}-4-pyrimidinylamino)-2-pyridinecarboxamide] | ≤ 500
15 | COc1cc(Nc2nccc(Nc3cnc4ccc(Br)cc4c3)n2)ccc1O[C@H]1C[C@H](N(C)C)C1 [Compound 199, 4-(6-bromo-3-quinolylamino)-2-{3-methoxy-4-[(1r,3r)-3-(dimethylamino)cyclobutoxy]phenylamino}pyrimidine] | ≤ 500
16 | COc1cc(Nc2nccc(Nc3cnc4c(c3)OCCO4)n2)ccc1OCCCN1CCCCC1 [Compound 201, 4-(2,3-dihydro-1,4-dioxa-5-aza-7-naphthylamino)-2-[3-methoxy-4-(3-piperidinopropoxy)phenylamino]pyrimidine] | ≤ 500

Row | SMILES | IC50 [nM]
17 | COc1cc(Nc2nccc(Nc3cnc4c(c3)CCCCC4)n2)ccc1O[C@H]1C[C@@H](N(C)C)C1 [Compound 202, 4-{8-azabicyclo[5.4.0]undeca-1(7),8,10-trien-10-ylamino}-2-{3-methoxy-4-[(1s,3s)-3-(dimethylamino)cyclobutoxy]phenylamino}pyrimidine] | ≤ 500
18 | COc1cc(Nc2nccc(Nc3cnc4[nH]cc(Br)c4c3)n2)ccc1O[C@H]1C[C@@H](N(C)C)C1 [Compound 203, 4-(3-bromo-1H-1,7-diazainden-5-ylamino)-2-{3-methoxy-4-[(1s,3s)-3-(dimethylamino)cyclobutoxy]phenylamino}pyrimidine] | ≤ 500
19 | CN(C)CC1COc2cc(Nc3nccc(Nc4cc5cccc(F)c5[nH]c4=O)n3)ccc2O1 (stereo not shown) [Compound 205, 3-(2-{2-[(dimethylamino)methyl]-2,3-dihydro-1,4-benzodioxin-6-ylamino}-4-pyrimidinylamino)-8-fluoro-1,2-dihydro-2-quinolinone] | ≤ 500
20 | O=S1(=O)CCN(CCCOc2ccc(Nc3nccc(Nc4cnc5ccc(Br)cc5c4)n3)cc2)CC1 [Compound 206, 4-(3-{p-[4-(6-bromo-3-quinolylamino)-2-pyrimidinylamino]phenoxy}propyl)-1λ^6,4-thiazinane-1,1-dione] | ≤ 500
21 | CN(C)CCOc1cc(Nc2nccc(Nc3cnc4ccccc4c3)n2)ccc1N1CCOCC1 [Compound 207, 2-{3-[2-(dimethylamino)ethoxy]-4-morpholinophenylamino}-4-(3-quinolylamino)pyrimidine] | ≤ 500
22 | COc1cc(Nc2nccc(Nc3cnc4c(c3)C3CCC4CC3)n2)ccc1OCCCN1CCCCC1 [Compound 209] | ≤ 500
23 | COc1cc(Nc2ncc(F)c(Nc3cnc4ccc(Cl)cc4c3)n2)ccc1O[C@H]1C[C@@H](N(C)C)C1 [Compound 210, N4-(6-chloroquinolin-3-yl)-N2-(4-((1s,3s)-3-(dimethylamino)cyclobutoxy)-3-methoxyphenyl)-5-fluoropyrimidine-2,4-diamine] | ≤ 500
24 | COc1cc(N2CCN(C3COC3)CC2)ncc1Nc1nccc(Nc2cc3cccc(F)c3[nH]c2=O)n1 [Compound 225, 8-fluoro-3-(2-{4-methoxy-6-[4-(3-oxetanyl)-1-piperazinyl]-3-pyridylamino}-4-pyrimidinylamino)-1,2-dihydro-2-quinolinone] | ≤ 500
25 | COc1cc(N2CCN(CC#N)CC2)ncc1Nc1nccc(Nc2cc3cccc(F)c3[nH]c2=O)n1 [Compound 226, (4-{5-[4-(8-fluoro-2-oxo-1,2-dihydro-3-quinolylamino)-2-pyrimidinylamino]-4-methoxy-2-pyridyl}-1-piperazinyl)acetonitrile] | ≤ 500
26 | COc1nc(N2CCC(O)(C(F)(F)F)CC2)ccc1Nc1nccc(Nc2cc3cccc(F)c3[nH]c2=O)n1 [Compound 227, 8-fluoro-3-(2-{6-[4-hydroxy-4-(trifluoromethyl)-1-piperidyl]-2-methoxy-3-pyridylamino}-4-pyrimidinylamino)-1,2-dihydro-2-quinolinone] | ≤ 500
27 | COc1cc(Nc2nccc(Nc3cc4cccc(F)c4[nH]c3=O)n2)cnc1N1CCC(O)(C(F)(F)F)CC1 [Compound 228, 8-fluoro-3-(2-{6-[4-hydroxy-4-(trifluoromethyl)-1-piperidyl]-5-methoxy-3-pyridylamino}-4-pyrimidinylamino)-1,2-dihydro-2-quinolinone] | ≤ 500
28 | COc1cc(Nc2nccc(Nc3cc4cccc(F)c4[nH]c3=O)n2)cnc1N1CCN(C)C(C)(C)C1 [Compound 229, 3-{2-[6-(3,3-dimethyl-4-methyl-1-piperazinyl)-5-methoxy-3-pyridylamino]-4-pyrimidinylamino}-8-fluoro-1,2-dihydro-2-quinolinone] | ≤ 500
29 | COc1cc(N2CCC(C)(O)CC2)ncc1Nc1nccc(Nc2cc3cccc(F)c3[nH]c2=O)n1 [Compound 230, 8-fluoro-3-{2-[6-(4-hydroxy-4-methyl-1-piperidyl)-4-methoxy-3-pyridylamino]-4-pyrimidinylamino}-1,2-dihydro-2-quinolinone] | ≤ 500
30 | COc1nc(N2CCC(C)(O)CC2)ccc1Nc1nccc(Nc2cc3cccc(F)c3[nH]c2=O)n1 [Compound 231, 8-fluoro-3-{2-[6-(4-hydroxy-4-methyl-1-piperidyl)-2-methoxy-3-pyridylamino]-4-pyrimidinylamino}-1,2-dihydro-2-quinolinone] | ≤ 500
31 | COc1cc(Nc2nccc(Nc3cc4cccc(F)c4[nH]c3=O)n2)cnc1N1CCN(CC(F)(F)F)CC1 [Compound 232, 8-fluoro-3-(2-{5-methoxy-6-[4-(2,2,2-trifluoroethyl)-1-piperazinyl]-3-pyridylamino}-4-pyrimidinylamino)-1,2-dihydro-2-quinolinone] | ≤ 500
